# According to the METLIN SMRT retention time set (Domingo-Almenara et al. 2019):
# Experiment: gradient 5% acetonitrile 3 min, to 50% in 2 min, to 85% in 15 min, held 3 min, 100 µL/min
# Conditions: column: Zorbax Extend-C18 2.1 x 50 mm; eluents: water / acetonitrile, 0.1% formic acid
# Outline: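 The system's dead and dwell volumes were 40 μL and 900 μL, with a Zorbax Extend-C18 column (2.1 × 50 mm, 1.8 μm) run at 100 μL/min in water and acetonitrile containing 0.1% formic acid each. Pure standards were analyzed in mixtures of ~100 molecules by HPLC–quadrupole time-of-flight mass spectrometry in positive and negative ionization mode. Retention time was assigned from computationally picked, manually inspected adduct peaks.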
row,Compound,RP-LC retention time [s]
1,N#Cc1cccc(C(=O)Nc2cnn(-c3ncc(N4CCCC4)cn3)c2)c1,777
2,CN1CCN(c2ncncc2N2CCC(C(=O)N3CCCCC3)CC2)CC1,557
3,Cc1cc(C)cc(NC(=O)Cn2c(C)nc3onc(C)c3c2=O)c1,802
4,O=[N+]([O-])c1ccc(-c2csc(Nc3ccccc3)n2)cc1,1130
5,COCc1c(C(=O)O)nnn1-c1ccc2c(c1)OCO2,648
6,NC(=O)C1CCN(C(=O)CSc2nnc(-c3sc4ncccc4c3N)n2C2CC2)CC1,606
7,CCOc1nccnc1NC1CCN(C(=O)Cc2cccs2)CC1,740
8,Cc1ccc(-c2nc(NC(=O)c3sc(C)nc3C)sc2C)cc1,1000
9,CCN(CC)S(=O)(=O)c1c(C)nc2sc(C)nn12,760
10,COc1cccc(-c2nc(COc3cc(C)c4c(C)nn(C)c4n3)c(C)o2)c1OC,1070
11,COCC(=O)N1CCC(N2C[C@H](O)C[C@H]2C(=O)NC2CCCCC2)CC1,573
12,CCc1noc(-c2nnn3c2COC(c2ccc(OC)cc2)C3)n1 (stereo unspecified),941
13,C=CCN1CCN(C(=O)C2=NN(c3ccc(Cl)cc3)c3ncccc3S2(=O)=O)CC1,660
14,CCCc1cc(N2CCN(C(=O)c3ccc(C#N)cc3)CC2)nc2nncn12,609
15,O=C(CSc1ccc(N2CCCC(C(=O)NC3CC3)C2)nn1)NCc1ccc(F)cc1 (stereo unspecified),622
16,COc1ccc(NC(=O)c2cc3c(s2)CN(C2CCCC2)C3)c(OC)c1,616
17,CCC(N)Cc1c[nH]c2ccccc12 (stereo unspecified),646
18,O=C(c1ccncc1)N1CC(N(Cc2ccncc2)CC2CC2)C1,519
19,O=C(CCNc1cnc2cnccn12)NCCC1=CCCCC1,626
20,O=C(c1ccncc1)N1CC(C(=O)N2CCSCC2)C2(CCCCC2)C1 (stereo unspecified),620
21,CNc1nc(N2CCNC(=O)C2)nc2ccccc12,564
22,Nc1ccc(CC(CC(=O)O)C(=O)O)cc1 (stereo unspecified),850
23,CCc1nc2cc(-c3noc(-c4sc(C)nc4C)n3)ccc2o1,1060

row,Compound,RP-LC retention time [s]
1,COCCCNCc1ccc(-c2ccccc2Cl)o1,672
2,O=C(c1ccc(Nc2nn3c(=O)c4ccccc4nc3s2)cc1)N1CCN(c2ccccn2)CC1,622
3,Cc1ccc(Cl)cc1NCc1nnc2n1CCCCC2,739
4,CCC(=O)N(C1CCOCC1)C1CCN(S(=O)(=O)c2ccc(C)cc2C)CC1,880
5,COc1ccc(-c2ncc3c(n2)CCN(C(=O)c2ccc(Br)o2)C3)cc1,946
6,COc1ccc(NC(=O)C2CCN(S(=O)(=O)c3cn(C)cn3)CC2)c(OC)c1,666
7,O=C(NCCc1csc(-c2cccs2)n1)C1CCN(S(=O)(=O)Cc2ccccc2)CC1,855
8,Cc1ccc(-n2cc(C3=CCN(CC(=O)NC4CCN(Cc5ccccc5)CC4)CC3)cn2)cc1,551
9,O=C(Nc1cc(-c2ccccn2)no1)C1CC1,668
10,N#CCCN1CCN(c2ccc(NC(=O)C3CCC3)c(C(=O)O)c2)CC1,586
11,CC1=C(c2ccc(C)cc2)S(=O)(=O)N=C1N1CCC(NC(=O)CCC(C)C)CC1,888
12,Cc1cc(C)cc(NC(=O)Cn2c(N3CCOCC3)nc(C)cc2=O)c1,711
13,O=C(NCc1ccco1)C1CCN(c2ccc(Sc3ccccc3)nn2)CC1,1060
14,Cc1ccc(C(=O)N2C[C@@H]3C[C@H](NC(=O)c4cccs4)[C@H]2C3)cn1,581
15,CCOC(=O)c1noc2ncnc(NCCCN3CCN(c4cc(C)ccc4C)CC3)c12,738
16,O=C(CCc1csc(NC(=O)NC2CCCCC2)n1)NCc1cccs1,711
17,NC(=O)C1CCN(C(=O)c2nnn(-c3ccc(Cl)cc3)c2-c2cccnc2)CC1,633
18,NCc1nnnn1-c1ccc(Cl)cc1,522
19,CCOc1ccc(N(C)S(=O)(=O)c2ccsc2C(=O)NCc2cccc(OCC)c2)cc1,1160
20,CCOC(=O)C1CCN(C(=O)c2csc(Nc3ccc(S(C)(=O)=O)cc3)n2)CC1,620
21,COCCn1ncc(N2CCC(NC(=O)C(C)(C)C)CC2)cc1=O,607
22,O=S(=O)(c1cc(F)cc(F)c1)N1CCCC(Cn2c(C3CC3)nc3cccnc32)C1 (stereo unspecified),806

# Second part, the compound after the results:
row,RP-LC retention time [s],Compound
1,730,Cc1ccccc1C(=O)CC1(O)C(=O)Nc2ccc(F)cc21 (stereo unspecified)
2,826,CCCCc1ccc(N2CCn3c2nc2c3c(=O)n(CC(=O)O)c(=O)n2C)cc1
3,870,COc1ccc(NC(=O)N2CCOc3ccc(Cl)cc32)cc1OC
4,591,Cn1c(CCNC(=O)c2ccccc2F)nc2cccnc21
5,1250,CCOc1ccc(Cc2nc(-c3ccc4oc(C)nc4c3)no2)cc1
6,1290,Cc1ccc2c(c1)OCC(=O)N2Cc1nc(-c2ccc(C(C)(C)C)cc2)no1
7,614,COc1ccccc1-c1nnc(-c2ccc(-n3ccnc3)nc2)o1
8,762,O=C(NCC1CCCO1)c1ccccc1NC(=O)C1CCN(C(=O)c2ccc(F)cc2)CC1 (stereo unspecified)
9,733,COc1ccccc1NS(=O)(=O)c1cc2n(c1)CCN(C(C)C)C2=O
10,747,O=C(CN1C(=O)COc2ccc(C(=O)N3CCCC3)cc21)NCCCc1ccccc1
11,810,COc1ccc(CNC(=O)C2CCN(S(C)(=O)=O)c3ccccc3O2)cc1 (stereo unspecified)
12,895,O=S(=O)(c1ccc2nncn2c1)N(Cc1cc(F)cc(F)c1)c1cccc(F)c1
13,717,COc1ccc(-c2cc3nn(CC(=O)N4CCOCC4)c(=O)n3c(C)n2)cc1
14,714,CCc1noc(C)c1-c1[nH]c2ccccc2c1C(=O)C(=O)N(C)C
15,734,COC(=O)c1ncn2c1C(=O)N(Cc1ccccc1)C(C)(C(=O)NCc1ccc(C)cc1)C2 (stereo unspecified)
16,981,O=c1c2cc(-c3ccc4c(c3)OCO4)nn2ccn1Cc1cccc(F)c1
17,755,CSc1ccc(CNC(=O)c2cn3cccc(C)c3n2)cc1
18,798,CCOC(=O)COc1cc(-c2ccc(F)cc2)nc2ccc(NC(=O)c3ccco3)cc12
19,1260,COc1ccc(C(=S)N2CCN(c3ccccc3Cl)CC2)cc1OC
20,715,COc1cccc(Cn2c(C)c(CNCc3ccc(C)o3)c(C(=O)O)c2C)c1
21,576,Cc1nn(CC(=O)NCCN2CCN(Cc3ccccc3)CC2)c(=O)c2noc(C)c12
22,881,CCN(CC)C(=O)C1CCCN(c2ncnc3c2cnn3-c2ccccc2)C1 (stereo unspecified)
23,688,O=C(CNC(=O)c1ccc(C(F)(F)F)cc1)Nc1nc2ccccc2[nH]1

row,RP-LC retention time [s],Compound
1,806,Cn1c(=O)c(SCC(=O)NCc2cccc(Br)c2)nc2cccnc21
2,669,COc1cccc(CNC(=O)Cc2cn(C)c3ncccc23)c1OC
3,709,O=C(Cn1cccc1-c1nnc(-c2ccccc2)o1)N1CCN(Cc2ccc3c(c2)OCO3)CC1
4,788,COc1ccc(CNC(=O)C2CCN(S(=O)(=O)c3ccc4c(c3)NC(=O)C(C)O4)CC2)cc1 (stereo unspecified)
5,786,CC(=O)N1CCC(C(=O)NCc2ccc(-c3nc(-c4ccc(F)cc4)no3)s2)CC1
6,861,CC(=O)NCc1ccc(-c2noc(-c3ccc(N(C)C)cc3)n2)s1
7,666,O=C(Cn1cnc(-c2cccs2)cc1=O)NCCn1nc(-c2cccs2)ccc1=O
8,707,CCC1(C(=O)NCc2ccc(C)cc2)CCCCC(=O)N1 (stereo unspecified)
9,847,O=C(NCc1ccc2c(c1)OCO2)c1ccc2c(c1)CC(=O)N2Cc1ccc(F)cc1
10,970,Cc1ccc2c(c1)OCC(=O)N2Cc1nc(-c2ccc(F)cc2)no1
11,673,O=C(NCC1CCCO1)C1COC2(CCN(C(=O)c3ccccc3F)CC2)N1C(=O)c1ccccc1 (stereo unspecified)
12,822,COc1ccc(NC(=O)Cn2nc(C(=O)N3CCCC3)c3ccccc32)c(OC)c1
13,884,Nc1ccccc1SC1CC(=O)N(c2ccccc2Cl)C1=O (stereo unspecified)
14,732,Cc1cc(NC(=O)C2CCN(S(=O)(=O)c3ccc(F)cc3)CC2)n(C)n1
15,690,CCc1ccc(S(=O)(=O)N2CCN(CCc3cn(CC)c4ncccc34)CC2)cc1
16,700,Cc1cccc(C(=O)NCc2ccc3c(c2)nnn3C)c1
17,929,CC(=O)N1c2ccc(S(=O)(=O)N3CCCCCC3)cc2CC1C(=O)NCc1ccc(C)cc1 (stereo unspecified)
18,859,CC(C)c1ccc(-c2nc3ncccn3c2NCc2ccccc2)cc1
19,664,Cc1ccc(N2CCN(C(=O)c3cn4ccc(C)cc4n3)CC2)cc1
20,882,CC1=NS(=O)(=O)N(C)C=C1C(=O)OCc1ccccc1
21,1060,CCOC(=O)c1nc(NCC2CCN(Cc3ccccc3Cl)CC2)c2ccccc2n1
22,710,O=C(c1ccoc1)N1CCCC(c2nc(-c3ccc(F)cc3)n[nH]2)C1 (stereo unspecified)
23,808,O=C(CCc1ccccc1)N1CCN(c2cc(-c3cccs3)[nH]n2)CC1
